Blank lines part the entries; values can stand above or below the molecule they belong to.
Test: Solubility tests in organic solvents
Format: physicochemical
Conditions: 20° C.; for Solubility S in chlorobenzene / Solubility S in toluene: 1 ml solvent, magnetic stirring
Procedure: The solubility tests were carried out at 20° C. by adding 1 ml of solvent to the suitable amount of compound powder in a sampling vial and under magnetic stirring.

Solubility S in chlorobenzene (molar): > 45 mM
Solubility S in chlorobenzene: > 55 mg/mL
Structure (SMILES): COc1ccc(-n2c3ccc(-n4c5ccc([Si](C(C)C)(C(C)C)C(C)C)cc5c5cc([Si](C(C)C)(C(C)C)C(C)C)ccc54)cc3c3cc(-n4c5ccc([Si](C(C)C)(C(C)C)C(C)C)cc5c5cc([Si](C(C)C)(C(C)C)C(C)C)ccc54)ccc32)cc1 [Compound VI, 9′-(4-Methoxy-phenyl)-3,6,3″,6″-tetrakis-triisopropylsilanyl-9′-[9,3′;6′,9″]tercarbazole]

Structure (SMILES): COc1ccc(-n2c3ccc(-n4c5ccccc5c5cc([Si](C(C)C)(C(C)C)C(C)C)ccc54)cc3c3cc(-n4c5ccccc5c5cc([Si](C(C)C)(C(C)C)C(C)C)ccc54)ccc32)cc1 [Compound VII, 9-N-(4-Methoxy-phenyl)-3,6-Bis-[(3-Triisopropylsilylcarbazolyl)]carbazole]
Solubility S in chlorobenzene (molar): > 62 mM
Solubility S in chlorobenzene: > 56 mg/mL

Structure (SMILES): CC(C)[Si](c1ccc2c(c1)c1ccccc1n2-c1ccc(C2(c3ccc(-n4c5ccccc5c5cc([Si](C(C)C)(C(C)C)C(C)C)ccc54)cc3)c3ccccc3-c3ccccc32)cc1)(C(C)C)C(C)C [Compound IX, 9,9-Bis-[4-(3-Triisopropylsilylcarbazol)-phenyl]-fluorene]
Solubility S in chlorobenzene (molar): > 59 mM
Solubility S in chlorobenzene: > 57 mg/mL
Solubility S in toluene (molar): > 49 mM
Solubility S in toluene: > 47 mg/mL

Structure (SMILES): CC(C)[Si](c1ccc2c(c1)c1ccccc1n2-c1ccc2c(c1)c1cc(-n3c4ccccc4c4cc([Si](C(C)C)(C(C)C)C(C)C)ccc43)ccc1n2-c1ccc(F)cc1)(C(C)C)C(C)C [Compound VIII, 9-N-(4-Fluoro-phenyl)-3,6-Bis-[(3-Triisopropylsilylcarbazolyl)]carbazole]
Solubility S in chlorobenzene (molar): > 57 mM
Solubility S in chlorobenzene: > 51 mg/mL

Structure (SMILES): CC(C)[Si](c1ccc2c(c1)c1cc([Si](C(C)C)(C(C)C)C(C)C)ccc1n2-c1ccc(C2(c3ccc(-n4c5ccc([Si](C(C)C)(C(C)C)C(C)C)cc5c5cc([Si](C(C)C)(C(C)C)C(C)C)ccc54)cc3)c3ccccc3-c3ccccc32)cc1)(C(C)C)C(C)C [Compound IV, 9,9-Bis-(4-phenyl-3,6,3″,6″-tetrakis-triisopropylsilanyl-9′H-carbazole)-9H-fluorene]
Solubility S in chlorobenzene (molar): > 42 mM
Solubility S in chlorobenzene: > 54 mg/mL
Solubility S in toluene (molar): > 31 mM
Solubility S in toluene: > 39 mg/mL
